Results: publication PMC11206988, “Study on the Effect of Pharmaceutical Excipient PEG400 on the Pharmacokinetics of Baicalin in Cells Based on MRP2, MRP3, and BCRP Efflux Transporters” (Pharmaceutics, 2024)

Experiments:
[1] = Pharmacokinetic study of baicalin in HepG2 cells (intracellular concentrations by UPLC-MS/MS); format: in vitro ADME, human; conditions: human, intracellular; for AUC(0-t) at 100 μM / Cmax at 100 μM / half-life at 100 μM: HepG2 cells
Procedure: (§1) The samples were quantified by UPLC-MS/MS, which consisted of a Dionex Ultimate 3000 UPLC system (Thermo Fisher Scientific, Waltham, MA, USA) and a triple quadrupole tandem mass spectrometer (Thermo Fisher Scientific, Waltham, MA, USA). The mass spectrometry was performed using an ESI ion source and in positive ion mode. The chromatograms are shown in Figure S1 of the Supplementary Materials. The samples were analyzed by a Waters XBridge BEH C18 column (2.1 × 100 mm). Mobile phase A consists of acetonitrile, while mobile phase B consists of water containing 0.1% formic acid. The elution program was as follows: B was initially 90%, 0 to 9 min B decreased from 90% to 27%, and 9.1 min to 12 min increased from 27% to 90% B. The flow rate of the mobile phase was 0.3 mL/min, the temperature of the automatic injector was 5 °C, and the injection volume was 10 μL. The m/z for BG and B6G was 447 → 271, for baicalein m/z 271 → 123, and for genistein (IS) m/z 271 → 153. Other mass spectrometry parameters included sheath gas (Arb) pressure, 20 psi, and auxiliary gas (Arb) pressure, 2 psi; source voltage, 4.8 KV, and capillary voltage, 2.5 KV; and ion-transfer-tube temperature, 375 °C, and atomization temperature, 275 °C.
(§2) HepG2 cells were cultured at a density of 1×10^5 cells/mL in 12-well plates for 24 h to facilitate the conduct of cellular pharmacokinetic experiments. The old medium was aspirated and discarded, the wells were rinsed twice with PBS, and 1 mL of 100 μM baicalin and baicalin + PEG400 (0.25%, 0.5%, and 1%) was added into 12-well plates to initiate the timer. The culture was terminated after 0.25 h, 0.5 h, 1 h, 2 h, 4 h, 6 h, 8 h, 10 h, 12 h, and 24 h, respectively. Upon reaching the designated time for administration, the cell culture medium was removed, and the wells were washed with 1 mL of cold PBS solution. Subsequently, 240 μL of ultra-pure water were added to each well, and the sample was stored at −80 °C until analysis. The sample was subjected to sonication in an ice bath for 10 min in order to lyse the cells, thereby enabling the determination of the accumulated drug concentration within the cells. Subsequently, 20 μL of the cell lysate was collected, and the protein concentration was quantified using a BCA kit for normalization.
(§3) After repeated freeze-thaw lysis, 100 μL of cell samples were taken, and 300 μL of 0.2% formic acid acetonitrile (containing 200 ng/mL genistein) were added to the vortex for 10 min to precipitate proteins and then centrifuged at 14,000 r/min for 10 min. Then the supernatant was blown dry under nitrogen at 40 °C and then reconstituted with 200 μL of methanol and centrifuged at 14,000 rpm for 10 min. The supernatant was subjected to UPLC-MS/MS analysis.

HepG2 cells = assay: as above; format: in vitro ADME, human; conditions: HepG2 cells
Procedure: as §1, §2, §3

[2] = HepG2 cells given 100 μM baicalin + H PEG400 (1%)
[3] = HepG2 cells given 100 μM baicalin + L PEG400 (0.25%)
[4] = HepG2 cells given 100 μM baicalin + M PEG400 (0.5%)
[5] = HepG2 cells given 100 μM baicalin alone (group BG, control)

Structure (SMILES): O=C(O)[C@H]1O[C@@H](Oc2cc3oc(-c4ccccc4)cc(=O)c3c(O)c2O)[C@H](O)[C@@H](O)[C@@H]1O [BG, Baicalein-7-O-β-D-glucuronide]
- AUC(0-t) at 100 μM [1, 2]: 130 ± 5.26 µg·h/mL
- Cmax at 100 μM [1, 2]: 10800 ± 350 ng/mL
- half-life at 100 μM [1, 2]: 5.43 ± 0.91 h
- AUC(0-t) at 100 μM [1, 3]: 107 ± 2.22 µg·h/mL
- Cmax at 100 μM [1, 3]: 10200 ± 1480 ng/mL
- half-life at 100 μM [1, 3]: 9.91 ± 3.76 h
- AUC(0-t) at 100 μM [1, 4]: 112 ± 3.99 µg·h/mL
- Cmax at 100 μM [1, 4]: 11200 ± 1500 ng/mL
- half-life at 100 μM [1, 4]: 6.02 ± 4.23 h
- Cmax at 100 μM [1, 5]: 7840 ± 110 ng/mL
- half-life at 100 μM [1, 5]: 6.77 ± 5.92 h
- AUC(0-t) at 100 μM ([1]; HepG2 cells given 100 μM baicalin alone (group BG, control), 0.25-24 h): 76 ± 2.57 µg·h/mL
- Tmax at 100 μM [1, 5]: 6 h
- AUC0–t increase compared with the control group (HepG2 cells; baicalin + high PEG400 (1%) vs baicalin alone): 1.72 fold
- AUC0–t increase compared with the control group (HepG2 cells; baicalin + low PEG400 (0.25%) vs baicalin alone): 1.41 fold
- AUC0–t increase compared with the control group (HepG2 cells; baicalin + medium PEG400 (0.5%) vs baicalin alone): 1.48 fold
